Source: patent publication US11090395B2, “Composition for cross talk between estrogen receptors and cannabinoid receptors” (SeeCure Taiwan Co., Ltd., priority 2018, dated 2021)

System: lymphoma cells (mantle cell lines and DLBCL cell lines)
Test: In vitro anti-cancer cell viability assay in lymphoma cell lines
Type: cell-based
Procedure: Effect of Composition SC-05-L-1 and Composition SC-05-K-1 against lymphoma cells was assessed by using cell viability assays in representative mantle cell lines and diffuse large B-cell lymphoma (DLBCL) cell lines. The cells were treated with increasing concentration of Compound SC-05-L-1 and Compound SC-05-K-1. Representative DLBCL cell lines sensitive or less sensitive to Compound SC-05-L-1 and Compound SC-05-K-1 were compared.

CCN(CC)CCOc1ccc(/C(=C(/CCCOCC(O)CN2CCCNCCNCCCNCC2)c2ccccc2)c2ccccc2)cc1.Cl [SC-05-L-1, (Z)-1-(1,4,8,11-tetraazacyclotetradecan-1-yl)-3-((5-(4-(2-(diethylamino)ethoxy)phenyl)-4,5-diphenylpent-4-en-1-yl)oxy)propan-2-ol hydrochloride salt]
anti-cancer effect against lymphoma cells (increasing concentration (FIG. 7A, 7B)): dose-dependent manner against lymphoma cells
relative toxicity (lymphoma cells, cyclam versus cyclen chelator (FIG. 8A, 8B)): less toxic than Compound SC-05-K-1
